From US9056874B2, “Complement pathway modulators and uses thereof” (NOVARTIS AG, priority 2012, dated 2015)

The compounds below were run against factor B (Homo sapiens, UniProt P00751) (assay: factor B inhibition assay of Biological Example 1). Conditions: IC50 (nM), assay of Biological Example 1 (Table 1).
Format: biochemical
Set-up: CVF-Bb complex prepared from purified cobra venom factor (1 μM), recombinant human complement factor B; made in house; host or cells: drosophila cells (factor B); E. coli (factor D used to form the complex)

factor B, sequence (P00751 260-764 limits assumed): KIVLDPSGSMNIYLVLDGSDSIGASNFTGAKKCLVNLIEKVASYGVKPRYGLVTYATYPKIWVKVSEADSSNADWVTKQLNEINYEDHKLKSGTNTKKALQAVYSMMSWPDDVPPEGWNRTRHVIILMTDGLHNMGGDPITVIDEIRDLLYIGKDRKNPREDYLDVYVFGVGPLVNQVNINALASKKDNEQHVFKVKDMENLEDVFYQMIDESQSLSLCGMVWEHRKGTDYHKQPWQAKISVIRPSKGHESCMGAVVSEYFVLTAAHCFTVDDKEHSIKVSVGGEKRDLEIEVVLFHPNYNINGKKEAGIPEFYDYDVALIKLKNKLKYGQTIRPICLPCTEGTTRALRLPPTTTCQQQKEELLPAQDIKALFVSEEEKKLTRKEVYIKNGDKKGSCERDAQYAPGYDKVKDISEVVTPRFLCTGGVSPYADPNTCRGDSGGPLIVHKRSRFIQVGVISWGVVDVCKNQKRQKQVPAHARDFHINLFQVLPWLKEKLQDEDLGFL
factor B, sequence (Q91132 23-649 partner limits assumed): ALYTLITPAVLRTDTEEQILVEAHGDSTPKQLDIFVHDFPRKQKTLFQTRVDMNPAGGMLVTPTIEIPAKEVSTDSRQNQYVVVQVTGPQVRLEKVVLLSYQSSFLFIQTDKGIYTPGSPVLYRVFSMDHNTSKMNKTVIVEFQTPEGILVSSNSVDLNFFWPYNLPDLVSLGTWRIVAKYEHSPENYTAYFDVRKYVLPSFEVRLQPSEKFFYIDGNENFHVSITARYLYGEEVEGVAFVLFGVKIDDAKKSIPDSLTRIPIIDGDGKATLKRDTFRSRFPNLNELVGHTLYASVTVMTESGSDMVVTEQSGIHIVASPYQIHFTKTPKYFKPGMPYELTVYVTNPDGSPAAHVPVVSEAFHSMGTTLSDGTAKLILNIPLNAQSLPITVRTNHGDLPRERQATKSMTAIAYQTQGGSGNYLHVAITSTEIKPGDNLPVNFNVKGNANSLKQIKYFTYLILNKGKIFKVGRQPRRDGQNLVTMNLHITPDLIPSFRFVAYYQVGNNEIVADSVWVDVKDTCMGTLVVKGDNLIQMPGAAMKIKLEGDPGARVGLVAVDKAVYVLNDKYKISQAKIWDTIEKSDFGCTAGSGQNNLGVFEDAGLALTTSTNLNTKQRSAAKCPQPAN
factor B, sequence (Q91132 733-984 partner limits assumed): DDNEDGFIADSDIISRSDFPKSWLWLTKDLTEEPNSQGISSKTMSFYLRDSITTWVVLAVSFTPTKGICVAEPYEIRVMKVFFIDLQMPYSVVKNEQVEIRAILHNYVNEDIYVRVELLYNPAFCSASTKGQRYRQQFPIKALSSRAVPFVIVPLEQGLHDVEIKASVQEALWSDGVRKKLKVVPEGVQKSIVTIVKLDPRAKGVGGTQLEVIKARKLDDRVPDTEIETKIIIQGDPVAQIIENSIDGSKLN
factor B, sequence (Q91132 1264-1642 partner limits assumed): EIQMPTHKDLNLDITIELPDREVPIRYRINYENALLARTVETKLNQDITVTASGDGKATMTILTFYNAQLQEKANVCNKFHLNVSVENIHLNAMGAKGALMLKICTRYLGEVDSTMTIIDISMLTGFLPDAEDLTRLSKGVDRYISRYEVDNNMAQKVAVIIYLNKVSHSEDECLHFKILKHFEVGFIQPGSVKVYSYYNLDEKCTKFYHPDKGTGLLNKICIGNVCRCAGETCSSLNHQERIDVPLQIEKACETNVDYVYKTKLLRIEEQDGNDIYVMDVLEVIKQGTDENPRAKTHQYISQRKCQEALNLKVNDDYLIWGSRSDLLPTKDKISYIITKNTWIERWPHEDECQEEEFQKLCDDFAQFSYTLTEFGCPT

Row | Compound | IC50 [nM]
1 | CCc1cc(C)c2[nH]ccc2c1C(C)(N)c1nc2cc(C#N)ccc2[nH]1 (single isomer, unassigned; (+)) [102-C b) (+), (+)-2-(1-amino-1-(5-ethyl-7-methyl-1H-indol-4-yl)ethyl)-1H-benzo[d]imidazole-5-carbonitrile] | 50
2 | Cc1cc(C2CC2)c(C(C)(N)c2nc3cc(C#N)ccc3[nH]2)c2cc[nH]c12 (single isomer, unassigned; (+)) [102-D b) (+), (+)-2-(1-amino-1-(5-cyclopropyl-7-methyl-1H-indol-4-yl)ethyl)-1H-benzo[d]imidazole-5-carbonitrile] | 6
3 | Cc1cc(Br)c(C(N)(c2nc3cc(C#N)ccc3[nH]2)C(F)(F)F)c2cc[nH]c12 (single isomer, unassigned; (+)) [105-B b) (+), (+)-2-(1-amino-1-(5-bromo-7-methyl-1H-indol-4-yl)-2,2,2-trifluoroethyl)-1H-benzo[d]imidazole-5-carbonitrile] | 90
4 | CNC(c1nc2cc(C#N)ccc2[nH]1)(c1c(Br)cc(C)c2[nH]ccc12)C(F)(F)F (single isomer, unassigned; (+)) [106 b) (+), (+)-2-(1-(5-bromo-7-methyl-1H-indol-4-yl)-2,2,2-trifluoro-1-(methylamino)ethyl)-1H-benzo[d]imidazole-5-carbonitrile] | 150
5 | CCc1cc(C)c2[nH]ccc2c1C(NC)(c1nc2cc(C#N)ccc2[nH]1)C(F)(F)F (single isomer, unassigned; (+)) [107-B b) (+), (+)-2-(1-(5-ethyl-7-methyl-1H-indol-4-yl)-2,2,2-trifluoro-1-(methylamino)ethyl)-1H-benzo[d]imidazole-5-carbonitrile] | 140
6 | CCc1cc(C)c2[nH]ccc2c1C(N)(c1nc2cc(C#N)ccc2[nH]1)C(F)(F)F (single isomer, unassigned; (+)) [107-C b) (+)] | 400
7 | Cc1cc(C2CC2)c(C(N)(c2nc3cc(C#N)ccc3[nH]2)C(F)(F)F)c2cc[nH]c12 (single isomer, unassigned; (+)) [107-D b) (+), (+)-2-(1-amino-1-(5-cyclopropyl-7-methyl-1H-indol-4-yl)-2,2,2-trifluoroethyl)-1H-benzo[d]imidazole-5-carbonitrile] | 50
8 | CNC(c1nc2cc(C#N)ccc2[nH]1)(c1c(C2CC2)cc(C)c2[nH]ccc12)C(F)(F)F (single isomer, unassigned; (+)) [107-E b) (+), (+)-2-(1-(5-cyclopropyl-7-methyl-1H-indol-4-yl)-2,2,2-trifluoro-1-(methylamino)ethyl)-1H-benzo[d]imidazole-5-carbonitrile] | 240
9 | COc1cc(C)c2c(c1C(C)(OC)c1nc3cc(C#N)ccc3[nH]1)CCN2 (single isomer, unassigned; (+)) [124 b) (+), (+)-2-(1-methoxy-1-(5-methoxy-7-methylindolin-4-yl)ethyl)-1H-benzo[d]imidazole-5-carbonitrile] | 490
10 | COc1cc(C)c2[nH]ccc2c1C(O)c1nc2cc(C#N)ccc2o1 (single isomer, unassigned; (+)) [125-B b) (+), (+)-2-(hydroxy(5-methoxy-7-methyl-1H-indol-4-yl)methyl)benzo[d]oxazole-5-carbonitrile] | 180
11 | COc1cc(C)c2[nH]ccc2c1C(O)(c1nc2cc(C#N)ccc2o1)C(F)(F)F (single isomer, unassigned; (+)) [128-B b) (+), (+)-2-(2,2,2-trifluoro-1-hydroxy-1-(5-methoxy-7-methyl-1H-indol-4-yl)ethyl)benzo[d]oxazole-5-carbonitrile] | 1990
12 | COc1cc(C)c2[nH]ccc2c1C(C)(N)c1nc2cc(C#N)ccc2o1 (single isomer, unassigned; (+)) [131-B b) (+), (+)-2-(1-amino-1-(5-methoxy-7-methyl-1H-indol-4-yl)ethyl)benzo[d]oxazole-5-carbonitrile] | 140
13 | CCc1cc(C)c2[nH]cc(C(F)(F)F)c2c1C(C)(O)c1nc2cc(C#N)ccc2[nH]1 (single isomer, unassigned; (+)) [Example 88, (+)-2-(1-(5-Ethyl-7-methyl-3-(trifluoromethyl)-1H-indol-4-yl)-1-hydroxyethyl)-1H-benzo[d]imidazole-5-carbonitrile] | 57900
14 | Cc1cc(OC(F)F)c(C(O)c2nc3cc(C#N)ccc3[nH]2)c2cc[nH]c12 (single isomer, unassigned; (-)) [3-B b) (−), (−)-2-((5-(difluoromethoxy)-7-methyl-1H-indol-4-yl)(hydroxy)methyl)-1H-benzo[d]imidazole-5-carbonitrile] | 250
15 | Cc1cc(OC(F)F)c(C(C)(N)c2nc3cc(C#N)ccc3[nH]2)c2cc[nH]c12 (single isomer, unassigned; (-)) [5-E b) (−), (−)-2-(1-amino-1-(5-(difluoromethoxy)-7-methyl-1H-indol-4-yl)ethyl)-1H-benzo[d]imidazole-5-carbonitrile] | 40
16 | COC(C)(c1nc2cc(C#N)ccc2[nH]1)c1c(OC(F)F)cc(C)c2[nH]ccc12 (single isomer, unassigned; (-)) [8-B b) (−), (−)-2-(1-(5-(difluoromethoxy)-7-methyl-1H-indol-4-yl)-1-methoxyethyl)-1H-benzo[d]imidazole-5-carbonitrile] | 900
17 | Cc1cc(S(C)(=O)=O)c(C(C)(N)c2nc3cc(C#N)ccc3[nH]2)c2cc[nH]c12 (single isomer, unassigned; (-)) [13-E b) (−), (−)-2-(1-Amino-1-(7-methyl-5-(methylsulfonyl)-1H-indol-4-yl)ethyl)-1H-benzo[d]imidazole-5-carbonitrile] | 1410
18 | Cc1cc(S(C)(=O)=O)c(C(O)(c2nc3cc(C#N)ccc3[nH]2)C(F)(F)F)c2cc[nH]c12 (single isomer, unassigned; (-)) [14-D b) (−), (−)-2-(2,2,2-trifluoro-1-hydroxy-1-(7-methyl-5-(methylsulfonyl)-1H-indol-4-yl)ethyl)-1H-benzo[d]imidazole-5-carbonitrile] | 270
19 | COC(c1nc2cc(C#N)ccc2[nH]1)(c1c(S(C)(=O)=O)cc(C)c2[nH]ccc12)C(F)(F)F (single isomer, unassigned; (-)) [15-D b) (−), (−)-2-(2,2,2-trifluoro-1-methoxy-1-(7-methyl-5-(methylsulfonyl)-1H-indol-4-yl)ethyl)-1H-benzo[d]imidazole-5-carbonitrile] | 680
20 | CNC(c1nc2cc(C#N)ccc2[nH]1)(c1c(S(C)(=O)=O)cc(C)c2[nH]ccc12)C(F)(F)F (single isomer, unassigned; (-)) [16-B b) (−), (−)-2-(2,2,2-trifluoro-1-(7-methyl-5-(methylsulfonyl)-1H-indol-4-yl)-1-(methylamino)ethyl)-1H-benzo[d]imidazole-5-carbonitrile] | 180
21 | Cc1cc(S(C)(=O)=O)c(C(N)(c2nc3cc(C#N)ccc3[nH]2)C(F)(F)F)c2cc[nH]c12 (single isomer, unassigned; (-)) [17-B b) (−), (−)-2-(1-amino-2,2,2-trifluoro-1-(7-methyl-5-(methylsulfonyl)-1H-indol-4-yl)ethyl)-1H-benzo[d]imidazole-5-carbonitrile] | 1330
22 | COc1cc(C)c2[nH]ccc2c1C(O)c1nc2cc(C#N)ccc2[nH]1 (single isomer, unassigned; (-)) [24-B b) (−), (−)-2-(hydroxy(5-methoxy-7-methyl-1H-indol-4-yl)methyl)-1H-benzo[d]imidazole-5-carbonitrile] | 90
